SMILES strings stand for the structures. ≈ marks a conversion by molar mass, not a printed value.

The conditions of this series: buffer; pH 7.4; 200.0 µM.
As to `O=C1CN(C(=O)COC(=O)COc2ccccc2)c2ccccc2N1`, the kinetic solubility was more than 51.1 µg/mL. `O=C(NCc1ccc(Cl)cc1)c1ccncc1` gave a solubility (kinetic) of more than 37 µg/mL. As to `COP(=O)(OC)C(Nc1ccccc1)c1ccccc1` (stereo not given), the solubility (kinetic) is more than 43.7 µg/mL. `O=C(Nc1cccc2ncccc12)c1cc(Br)ccc1Cl`: the kinetic solubility came out at 5 µg/mL (≈ 13.8 µM). As for `CSc1ccccc1C(=O)NCc1cccnc1`, the solubility (kinetic) was more than 38.8 µg/mL. For `CCCCc1c(C)nc2ccccc2c1SCCC(=O)O`, the kinetic solubility was more than 45.5 µg/mL.

`Cc1ccc(N=C(N)N=C(N)N)cc1` came in with a kinetic solubility of more than 28.7 µg/mL. The molecule `Cc1cccc(C(=O)NCC(=O)N2CCOCC2)c1` returned a kinetic solubility of more than 39.3 µg/mL.

The molecule `CCn1c(C)nc2cc(C(=O)NNC(=O)CN(C)S(=O)(=O)c3ccc(NC(C)=O)cc3)ccc21` yielded a kinetic solubility of more than 73 µg/mL. Turning to `O=C(COC(=O)c1ccc(O)cc1)Nc1ccc2c(c1)OCCO2`, the solubility (kinetic) was determined as 21.9 µg/mL (≈ 66.5 µM). The molecule `CC(=O)Oc1ccc(C(=O)Nc2cccc3c2CCCC3)cc1` returned a kinetic solubility of 3.4 µg/mL (≈ 11 µM). The figure for `O=C(Cc1c(F)cccc1Cl)NCc1cccnc1` is more than 41.8 µg/mL. Turning to `Cc1cccc2cc(CN(Cc3ccco3)C(=O)c3ccco3)c(=O)[nH]c12`, the solubility (kinetic) is 0.8 µg/mL (≈ 2.21 µM). Consider `Cc1cc(N2CCCC2)nc2c(C)cccc12`, for which the kinetic solubility was 7.2 µg/mL (≈ 31.8 µM).

Molecule `Cc1ccc(-c2nc(N)sc2-c2ccc(C)cc2)cc1` showed a solubility (kinetic) of 0.5 µg/mL (≈ 1.78 µM).

`CS(=O)(=O)CC(=O)Nc1ccc2nc3n(c(=O)c2c1)CCCCC3`: the solubility (kinetic) amounted to 43.2 µg/mL (≈ 124 µM). With `O=C(CC(=O)Nc1cccc(F)c1)Nc1cccc(F)c1`, the kinetic solubility stood at 9.4 µg/mL (≈ 32.4 µM).

Take `Cc1ccc(-n2nc3c(c2NC(=O)C(C)C)CS(=O)(=O)C3)c(C)c1`: the solubility (kinetic) was more than 52.1 µg/mL. In turn, `CC1CCCCN1C(=O)CSc1nc2ncccc2[nH]1` (stereo not given) displayed a kinetic solubility of more than 43.6 µg/mL.

Molecule `Cc1cc(=O)[nH]c(SCC(=O)NC(C)C2CC3CCC2C3)c1C#N` (stereo not given) came in with a solubility (kinetic) of more than 51.8 µg/mL. Molecule `CSc1nc2ccccc2c(=O)n1C1CCCCC1` registered a kinetic solubility of 1 µg/mL (≈ 3.64 µM). In the case of `CC1C(Br)C(=O)NC(=O)N1Cc1ccccc1` (stereo not given), the solubility (kinetic) turned out to be 41.4 µg/mL (≈ 139 µM).

Regarding `Cc1ccc(S(=O)(=O)CC(=O)Nc2ccc(Cl)cn2)cc1`, the kinetic solubility worked out at 5.4 µg/mL (≈ 16.6 µM). Molecule `CCOC(=O)c1[nH]cnc1C(=O)Nc1ccccc1C` yielded a kinetic solubility of 10.3 µg/mL (≈ 37.7 µM). The molecule `O=C(Nc1nccs1)C(Cl)(Cl)Cl` yielded a kinetic solubility of more than 36.8 µg/mL. The molecule `NC(=O)c1ccsc1NC(=O)Cc1ccc([N+](=O)[O-])cc1` had a solubility (kinetic) of 12 µg/mL (≈ 39.3 µM). For `CC(CCc1ccccc1)NC(=O)COC(=O)c1cccnc1Cl` (stereo not given), the kinetic solubility is more than 52 µg/mL. `CN(C)C(CNC(=O)c1ccc2nccnc2c1)c1ccco1` (stereo not given) showed a kinetic solubility of 46.5 µg/mL (≈ 150 µM). As for `O=C(O)c1ccc(NCCC2=CCCCC2)c([N+](=O)[O-])c1`, the figure is 41.9 µg/mL (≈ 144 µM); as for `O=C(Nc1ccc(Cl)cc1)C1CCN(C(=O)c2ccco2)CC1`, more than 49.9 µg/mL; as for `CN1CCN(c2nc3ccccc3nc2C(C#N)S(=O)(=O)c2ccccc2)CC1` (stereo not given), more than 61.1 µg/mL. `COc1ccccc1N1CCN(C(=O)c2cc(C)on2)CC1` came in with a kinetic solubility of more than 45.2 µg/mL. With `CCCNC(=O)C12CCC(C)(C(=O)O1)C2(C)C` (stereo not given), the kinetic solubility was more than 35.9 µg/mL. Consider `C=C(C)Cn1c(CCNC(=O)c2ccco2)nc2ccccc21`, for which the solubility (kinetic) is more than 46.4 µg/mL. `O=c1c2ccccc2nc(CNCC2CCCO2)n1-c1ccc(F)cc1` (stereo not given) showed a solubility (kinetic) of 44.9 µg/mL (≈ 127 µM). As for `COC(=O)CSc1ncnc2c1sc1nc3c(cc12)COC(C)(C)C3`, the figure is 1.6 µg/mL (≈ 4.26 µM).

The molecule `N#CCCC1CCCC=C1N(Cc1ccccc1)C(=O)C(Cl)Cl` (stereo not given) returned a solubility (kinetic) of more than 52.7 µg/mL. `O=C(O)/C=C/c1ccc2noc(-c3ccccc3)c2c1` returned a kinetic solubility of 3.7 µg/mL (≈ 13.9 µM).

`O=S(=O)(/N=C(/c1ccccc1)N1CCOCC1)c1ccc(F)cc1F` yielded a kinetic solubility of more than 55 µg/mL. `O=C(Nc1ccccc1)c1cc([N+](=O)[O-])ccc1N1CCCCC1` came in with a solubility (kinetic) of 1.7 µg/mL (≈ 5.22 µM).

The molecule `CCN(CC)c1nc2c(c(=O)n(C)c(=O)n2C)n1CCCc1ccccc1` showed a kinetic solubility of 50.7 µg/mL (≈ 137 µM).

`Cc1ccccc1NS(=O)(=O)c1cccc2nonc12` showed a solubility (kinetic) of more than 43.4 µg/mL. The molecule `CCN(CC)C(=O)C(C)N(C#N)c1nc(Cl)nc(N(C)C)n1` (stereo not given) displayed a solubility (kinetic) of more than 48.9 µg/mL. Consider `O=S(=O)(Nc1ccccc1O)c1ccc(Cl)nc1`, for which the solubility (kinetic) was 35.6 µg/mL (≈ 125 µM). With `O=C1ON=C(c2ccccc2)/C1=C/c1ccc(O)c(O)c1`, the kinetic solubility was more than 42.2 µg/mL. As for `CSc1cccc(NC(=O)c2cccc3cccnc23)c1`, the figure is 5.7 µg/mL (≈ 19.4 µM); as for `O=C(COc1ccc(F)cc1)N1CCCc2ccccc21`, 33.6 µg/mL (≈ 118 µM); as for `COc1ccc(OC)c2sc(N3CCc4ccccc4C3)nc12`, 0.6 µg/mL (≈ 1.84 µM). As for `O=C(NCc1ccc(F)cc1)c1ccc(Br)o1`, the figure is 37.9 µg/mL (≈ 127 µM); as for `CCCCOc1ccc(CSCCN)cc1Cl.Cl`, more than 46.5 µg/mL; as for `CC1CCCCC1NC(=O)c1cc(=O)[nH]c2ccccc12` (stereo not given), 3.6 µg/mL (≈ 12.7 µM). For `CCN(CC)S(=O)(=O)c1cccc(-c2csc(C)n2)c1`, the kinetic solubility was determined as 37.8 µg/mL (≈ 122 µM). The molecule `COc1cc(OC)cc(C(=O)N[C@H](C(=O)NCc2ccco2)C(C)C)c1` registered a kinetic solubility of 45.3 µg/mL (≈ 126 µM). In turn, `CCn1ncc(-c2csc(N)n2)c1C` registered a solubility (kinetic) of more than 31.2 µg/mL. `CC(=O)Oc1ccc(-c2csc(Nc3cccc(C)n3)n2)cc1`: the solubility (kinetic) was less than 0.2 µg/mL. Turning to `C=CCC1c2cccc(C(=O)O)c2C(=O)N1c1cccc(OC)c1` (stereo not given), the solubility (kinetic) is more than 48.5 µg/mL. The figure for `O=C(COC(=O)C1=Cc2ccccc2OC1)NCc1ccco1` is 5.6 µg/mL (≈ 17.9 µM); for `CC1=Nc2cc([N+](=O)[O-])ccc2NC(C)(C)C1` it is 17 µg/mL (≈ 72.9 µM). The molecule `COc1ccc(-c2csc3ncn(Cc4ccccc4)c(=O)c23)cc1` returned a solubility (kinetic) of 1.4 µg/mL (≈ 4.02 µM).

Molecule `CC(C)C(=O)Nc1oc(-c2ccccc2)cc1C#N` returned a kinetic solubility of 10.5 µg/mL (≈ 41.3 µM).

Regarding `CCOc1ccccc1NC(=S)NCc1ccccc1`, the kinetic solubility worked out at 38.8 µg/mL (≈ 135 µM). In turn, `O=C(Nc1ccc2c(c1)CCC2)Nc1ccc(F)cc1F` registered a kinetic solubility of less than 0.3 µg/mL.

For the molecule `CN(C)c1ccc(C(=O)N2CCN(C(=O)C3CCCO3)CC2)cc1` (stereo not given), the solubility (kinetic) is more than 49.7 µg/mL. The molecule `CCOC(=O)[C@H](CCc1ccccc1)N[C@H]1CCc2ccccc2N(CC(=O)O)C1=O.Cl` displayed a kinetic solubility of more than 69.1 µg/mL. For the molecule `Cc1ccccc1NC(=O)Cc1cccc(C(F)(F)F)c1`, the solubility (kinetic) was 5.3 µg/mL (≈ 18.1 µM). Molecule `CCCCCn1c(=O)c(C(=O)OCC)c(Cl)c2ccccc21` showed a kinetic solubility of 6.5 µg/mL (≈ 20.2 µM). The figure for `N#Cc1ccccc1NC(=O)COC(=O)c1ccc(F)cc1F` is 11.1 µg/mL (≈ 35.1 µM); for `COc1ccc(C(=O)N2CCc3cc4c(cc3C2C)OCCCO4)cc1` (stereo not given) it is more than 53 µg/mL; for `O=S1(=O)CCN(OCc2ccc(Cl)cc2)CC1` it is more than 41.4 µg/mL. Take `CSc1ncc(CN2CCCC(C(=O)c3cccc(Cl)c3)C2)cn1` (stereo not given): the kinetic solubility was determined as 29 µg/mL (≈ 80.1 µM).

`Cc1cc(C(=O)Nc2ccc(N3CCCCC3)cc2)no1` showed a kinetic solubility of 6.8 µg/mL (≈ 23.8 µM). The figure for `CNC(=O)C(NC(=O)c1ccccc1)=C(C)C` is more than 34.8 µg/mL. Molecule `Cc1ccc(C)c(NC(=O)CN(C)C(=O)c2cccc(Oc3ccccc3)c2)c1` had a solubility (kinetic) of 31.1 µg/mL (≈ 80.1 µM). `O=C(c1ccccc1)c1cnc[nH]1` displayed a kinetic solubility of 25.6 µg/mL (≈ 149 µM). `CC(C)(CNc1ccc([N+](=O)[O-])cc1C#N)N1CCOCC1`: the solubility (kinetic) worked out at 8.1 µg/mL (≈ 26.6 µM).

What is called solubility (kinetic) is solubility judged after dilution from a stock solution rather than from solid.

Source of the values: PubChem BioAssay AID1996.
